Laboratory results published in patent US11015179B2, “Peptide having anti-viral effect and composition containing same” (priority 2015, dated 2021).

How the values were obtained:
JFH-1 cells = assay: Intracellular ROS production (DCF-DA) in JFH-1 cells; format: cell-based, human; details: for ROS production: 2 hours, PEP1 0.001-10 μM, NAC, PDTC 100 μM, vitamin E 10 μM, vs vehicle
Procedure: One day after 5×10^4 (cells/well) cells of the JFH-1 cell line were seeded into a 24-well plate, intracellular ROS production was measured according to various experimental materials. Measurement of intracellular activity was carried out by staining the cells with dichlorodihydrofluoresein diacetate (DCF-DA; Invitrogen), and fluorescence measurement of ROS production was carried out at […] using Infinte M2000 Tecan (Tecan Trading AG, Switzerland). All fluorescent units were expressed as arbitrary units, and as a positive control group, hydrogen peroxide (H2O2, 2 mM) was used. ROS measurement for the Huh7.5 cells was also carried out by the same procedure as described above.
As a control group, a human HCC cell line, and Huh7.5 and JFH-1 cell lines were treated with known representative antioxidants such as NAC (2 Mm), PDTC (100 μM), and vitamin E (10 μM) and then compared.
The inventors inhibited the interaction with HSP90 by two methods: a use of antibodies against […] and antibodies against HSP90 or a use of an inhibitor occupying a catalytic position (ATP-binding pocket in the N-terminal of HSP90).

NF-κB = NF-κB dual-luciferase assay in MT-4 cells; format: cell-based, human; details: 24 hours
Source text: NF-κB triggers HIV transcription by interacting with an NF-κB-binding site in HIV-LTR, and increases the activation of TAT-mediated LTR […]. In addition, Tat can directly activate NF-κB. Recently, there have been studies showing that eHSP90 can regulate various intracellular signaling pathways, including the NF-κB pathway.

HIV-1 [1] = details: MT-4 cells
Procedure: The MT-4 cells (4×10^5 cells) were infected with HIV-1 (4×10^5 50% cell culture infective dose (CCID50)) for one hour. […] After two days of incubation, images of the MT-4 cells expressing eGFP were obtained using a fluorescence microscope before harvesting the cells. To remove cell debris, the collected supernatant was subjected to centrifugation at 13,000 rpm for 3 minutes, and to measure an extracellular viral amount, p24 ELISA or RNA extraction was performed for a reverse transcription-quantitative polymerase chain reaction (RT-qPCR). Meanwhile, the cell pellets were washed with D-PBS twice, and used for a cell viability assay. […] HIV-1 replication was analyzed by p24 ELISA, and eGFP was monitored using a fluorescent microscope.
To measure HIV-1 virus titers, HIV-1 p24 antigen capture ELISA (p24 ELISA, ABL) and RT-qPCT assay were performed according to the manufacturer's instructions. HIV-1 RNA genomes were purified from the cell culture supernatants and pellets using a QIAamp Ultrasens Virus kit (Qiagen, Hilden, Germany) according to the manufacturer's instructions. The HIV-1 RNA levels were quantified by RT-qPCR using a primer pair specific to gag of HIV-1. Glyceraldehyde phosphate dehydrogenase (GAPDH) was used as a reference gene for normalization. […]

[2] = tested on: HIV-1 Tat transactivation; assay: HIV-LTR-luciferase assay in 1G5 cells transfected with Tat plasmids; format: cell-based; details: four days
Procedure: An HIV-1 transactivation protein (Tat) is a regulatory protein dramatically enhancing HIV-1 transcription through the interaction with the tat-transcriptional active region (TAR). […] In the present invention, as a Jurkat-derived cell line, 1G5 containing a stably-inserted HIV-LTR-luciferase construct was used.
The 1G5 cells were transfected with Tat plasmids. […] Four days after the infection, the transactivation of HIV-LTR was analyzed through a luciferase assay.

[3] = tested on: HIV-1-infected MT-4 cells; assay: Cell protective effect from HIV-1-induced cell death in MT-4 cells; format: cell-based, human; details: 5 days
Procedure: MT-4, 1G5 or ACH-2 cells were seeded in a 96-well microplate at a density of 1×10^4 cells/well, and incubated with increasing concentrations of PEP1 for 5 days. Cell viability was determined by colorimetry using a CellTiter96 Aqueous One Solution assay kit (Promega, Wis.) according to the manufacturer's instructions. To assess the cell protective effect of PEP1 from HIV-1-induced cell death, MT-4 cells (1×10^4) were infected with the HIV-1 virus (4×10^5 CCID50) for 5 days with or without PEP1, and subjected to a cell viability assay.
It has been known that apoptosis of HIV-infected cells occurs by an intracellular cell death mechanism.

HIV-1 [4] = details: ACH-2 cells, RT-qPCR, stepwise increasing concentrations
Procedure: That is, ACH-2 cells, that is, cells latently-infected with HIV-1, were stimulated with PMA (50 nM) to induce reactivation of HIV-1 for 1 hour. […] A production level of viral particles in the supernatant was determined by p24 ELISA.
The levels of viral genomic RNA of the produced viral particles were determined by RT-qPCR.

HCV = assay: Quantitative PCR of HCV NS2 transcript in JFH-1 cells; format: cell-based, Hepatitis C virus (HCV2a JFH-1); details: 48 hours, vs vehicle, PEP1 until 10 μM, NAC 20 mM, PDTC 100 μM, vitamin E 10 μM
Procedure: A cell line used in the example relating to the HCV antiviral effect of PEP1 according to an aspect of the present invention, such as, human hepatocellular carcinoma (Huh7.5) was purchased from the American Type Culture Collection (ATCC; Manassas, Va., USA), and a JFH-1 cell line was constructed using HCV2a JFH-1 clones provided from Dr. Wakita (Tokyo Metropolitan Institute for Neuroscience, Tokyo, Japan) in the Huh7.5 cell line. All of the cell lines were cultured in a Dulbecco's modified Eagle's medium (DMEM) containing 10% FBS and 1% antibiotics.
A HCV RNA level was detected though quantitative PCR using primers for a NS2 gene. To measure the level of HCV RNA in the supernatant of cell culture, RNA was extracted from 100 μl of the cell culture using a QIAamp Viral RNA Mini kit (Qiagen). The extracted RNA was used in cDNA synthesis using a transcript first strand cDNA synthesis supermix kit (Roche Applied Science). PCR was carried out using a 1×SYBR Green mix (Qiagen). For real-time PCR, an NS2 forward primer 5′-[…]-3′ (SEQ ID NO: 3) and a reverse primer 5′-[…]-3′ (SEQ ID NO: 4) were purchased from Bioneer Co. For quantitative PCR, a 7900HT Fast real-time PCR system (Applied Biosystems, Foster City, Calif., USA) was used.
According to the methods described in the experiments and the analysis methods, to investigate whether PEP1 inhibits the replication of one HCV RNA such as NS2, the transcript of NS2 was measured.

[5] = tested on: HSP90 (extracellular HSP90, eHSP90); assay: Extracellular HSP90 detection by ELISA in JFH-1 culture supernatant; format: cell-based, human; details: JFH-1 cells, PDTC 100 μM, 2 hours, vs control
Procedure: The Huh7.5 and JFH-1 cell lines were treated with an oxidant (H2O2, 2 mM) and an antioxidant, PDTC (100 μM), for two hours. HSP90 (extracellular HSP90, eHSP90) in the supernatant of a culture was detected by ELISA (R&D Systems, Minneapolis, Minn., USA) according to the manufacturer's instructions.

HIV-1 [6] = details: characteristics of control anti-HIV drugs stated as well known; cited from earlier work
p38, JNK and ERK = assay: Immunoblotting of MAPK signaling factors in JFH-1 cells; format: cell-based, human; details: 2 hours, vitamin E 10 μM
Procedure: Proteins were acquired from cells using a lysis solution (Cell Signaling Technology, Danvers, Mass., USA) containing a proteinase inhibitors cocktail (Roche, Basel, Switzerland) and a phosphatase inhibitor (Roche). To remove debris, which remained after cell lysis, the cells were centrifuged for 10 minutes at 4° C. 50 μg of the proteins were analyzed through 12% sodium dodecyl sulfate-polyacrylamide gel electrophoresis (SDS-PAGE), and then transferred to a polyvinylidene difluoride membrane (PVDF; Millipore, Bedford, Mass., USA). The transferred membrane was developed using an ImageQuant™ LAS 4000 mini biomolecular imager (GE Healthcare Bio-Sciences AB, Sweden), after antibodies against HSP90, p38, p-p38 (Thr180/Tyr182), JNK, p-JNK (Thr183/Tyr185), ERK, p-ERK (Thr202/Tyr204), and zinc-copper containing enzyme SOD (CuZn-SOD) and manganese-SOD (Mn-SOD) as superoxide dismutase oxidases (SODs), and GAPDH (all of them were purchased from Cell Signaling Technology and Santa Cruz Biotechnology) were attached to the membrane and then visualized by a SuperSignal West Pico chemiluminescence substrate (Pierce, Rockford, USA). β-actin was used for normalization using a Multi Gauge V 3.0 (Fuji Film, Japan), and quantitative analysis was carried out by densitometry. […]

C=CCNC1=C2C[C@@H](C)C[C@H](OC)[C@H](O)[C@@H](C)/C=C(\C)[C@H](OC(N)=O)[C@@H](OC)/C=C\C=C(/C)C(=O)NC(=CC1=O)C2=O [17AAG, 17-N-Allylamino-17-demethoxy geldanamycin]
Change in ROS caused by HSP inhibitor (JFH-1 cells; 17AAG 1 μM, KNK 10 μM): the ROS inhibitory effect was exhibited

Cc1cn([C@H]2C[C@H](N=[N+]=[N-])[C@@H](CO)O2)c(=O)[nH]c1=O [AZT, 3-azido-3-deoxythymidine]
NF-κB activity in HIV-1-infected MT-4 cells (NF-κB): medium level of inhibitory effect | Basal NF-κB activity (NF-κB; MT-4 cells): no significant effect | Inhibition of eGFP expression after anti-HSP90 antibodies (HIV-1 [1]; fluorescence / immunoblotting): an effect of AZT was not obtained | Inhibition of HIV-1 production after anti-HSP90 neutralization antibodies (HIV-1 [1]; p24 ELISA): no influence | HIV-LTR luciferase activity activated by ectopic expression of Tat [2]: did not inhibit | Cell protective effect [3]: considerable cell protective effects in a dose-dependent manner | Viral genomic RNA of produced viral particles after PMA (HIV-1 [4]): did not change the PMA effect

CC(=O)N[C@@H](CS)C(=O)O [NAC, N-acetylcysteine]
ROS production (JFH-1 cells): induced a decrease in ROS production | NS2 transcription (HCV RNA replication) (HCV): do not inhibit the NS2 transcription at all

S=C(S)N1CCCC1 [PDTC, pyrolidine dithiocarbamate]
ROS production (JFH-1 cells): induced a decrease in ROS production | ROS production in the presence of KNK and 17AAG (JFH-1 cells; PDTC): inhibits ROS production in the presence of both of KNK and 17AAG | ROS production with HSP70/HSP90 blocking antibodies (JFH-1 cells; PDTC): inhibits ROS production regardless of blocking of HSP70 and HSP90 | eHSP90 level [5]: produced at a lower level than the control group | NS2 transcription (HCV RNA replication) (HCV): do not inhibit the NS2 transcription at all

CC(C)c1nc(CN(C)C(=O)N[C@H](C(=O)N[C@@H](Cc2ccccc2)C[C@H](O)[C@H](Cc2ccccc2)NC(=O)OCc2cncs2)C(C)C)cs1 [Ritonavir]
Time of treatment at which the control drug inhibits HIV proliferation (HIV-1 [6]): up to 15 hours

vitamin E
ROS production (JFH-1 cells): induced a decrease in ROS production | ERK activity (p38, JNK and ERK): increased | NS2 transcription (HCV RNA replication) (HCV): do not inhibit the NS2 transcription at all
